Publication PMC8868346, “Novel Series of Dual NRF2 Inducers and Selective MAO-B Inhibitors for the Treatment of Parkinson’s Disease” (Antioxidants, 2022)

Assays:
AREc32 = conditions: MTT reduction
Description: AREc32 cells, shared by CR Wolf, were grown in Dulbecco’s modified Eagle medium (DMEM) with GlutaMAX (Gibco, Invitrogen, Madrid, Spain), supplemented with 10% (v/v) filtrated fetal bovine serum (FBS; Gibco, Invitrogen, Madrid, Spain), 1% of antibiotics penicillin-streptomycin, and geneticin (0.8 mg/mL G418; Gibco, Invitrogen, Madrid, Spain). […] They were recovered by centrifugation at 800 rpm for 10 min. Cells were used from the third to twelfth passage.
(§1) Basal absorbance was set to 100% and results were normalized to basal conditions.
(§2) Cytotoxicity. LD50 values in several cell cultures employed
(§3) Table S2. Cytotoxicity elicited by 10-18 compounds in SH-SY5Y, AREc32 and mixed pr imary glial cultures. Viability was measured as MTT reduction in presence of increasing concentrations of der ivatives. LD50 values were calcula ted from dose-response curves. Data are expr essed as mean ± SEM of at least 3 independent experiments.
(§4) 1.3. PAMPA control compounds (BBB permeability)
(§5) Table S3. Pr ediction of the BBB passive permeability of control compounds

[1] = test system: nitrite production in mixed primary glial cultures; test: Nitrite production in LPS stimulated primary mixed glial cultures (Griess); assay type: cell-based; conditions: Rattus norvegicus; 24 h pre-treatment, LPS 1 µg/mL 18 h; read-out: EC50 Nitrite Reduction
Description: (§6) Cells were cultured for 7–10 days before treatment.
(§7) Primary glial cells were pre-treated with compounds at the desired concentration for 24 h. Then, treatments were removed and glial cells were incubated with lipopolysaccharide (LPS, 1 μg/mL; Sigma–Aldrich, Spain) in the presence of each compound at the desired concentration for 18 h. Nitrite production was then assessed by modified Griess assay. Briefly, 150 µL of each sample was mixed with 75 µL of 4,4′-diamino-diphenylsulfone (Dapsone) and 75 µL of N-(1-naphthyl)ethylenediamine (Neda). The mixture was incubated at room temperature for 5 min. […] Data were normalized to basal conditions, setting this value as 100% of nitrite production. EC50 values were calculated from dose–response curves obtained from representing percentage of nitrites reduction vs. compound concentration.

[2] = test system: Mixed primary glial cultures; test: Cytotoxicity in mixed primary glial cultures (MTT); conditions: MTT reduction
Description: Mixed primary glial cultures were obtained from cerebral cortex of 2–5-day-old Sprague–Dawley rats. Blood vessels and meninges were first removed in Hank’s balanced salt solution (HBSS) and then forebrains were dissociated in DMEM/F12 medium. After mechanical dissociation, filtering, and centrifugation at 800 rpm for 10 min, cells were plated at a density of 30,000 cells/well in DMEM/F12 medium with 20% (v/v) FBS and 1% penicillin/streptomycin (10,000 units). […] After 5 days, medium was substituted by DMEM/F12 medium with 10% (v/v) FBS. Cells were cultured for 7–10 days before treatment.
as §1, §2, §3, §4, §5

[3] = Oxygen radical absorbance capacity (ORAC) assay; conditions: Trolox equivalents; AAPH, fluorescein
Description: The ORAC test was performed to evaluate the oxygen free radical scavenger capacity of the compounds. […] Compounds at desired concentrations (0.03, 0.1, 0.3, 1, 3, and 10 µM) were diluted in phosphate-buffered saline (PBS; 10 mM, pH 7.4) at 37 °C and placed in a 96 black flat bottom well plate. […] A fluorescence measurement was done first to determine the basal signal. Then, 25 µL of 2, 2′-azobis-amidinopropane dihydrochloride (AAPH) (12 mM final concentration) was quickly added. All samples were measured in duplicates in three different experiments. […] Results were expressed in terms of Trolox equivalents (T.eq.), obtained by plotting net AUC versus compound concentration, then performing linear regression and normalizing slopes of the compounds considering Trolox as reference.

[4] = Blood–brain barrier permeation assay (PAMPA); conditions: BBB permeability class from Pe
SH-SY5Y cells [5] = test: Neuroprotection in SH-SY5Y against 6-hydroxydopamine (MTT); assay type: cell-based, human; conditions: 6-OHDA 100 µM; compound 0.1 µM, 24 h pre- and 24 h co-incubation
Description: (§8) Cells were seeded at a density of 60,000 cells/well in 96-well transparent plates for 24 h. Then cells were pre-incubated with the corresponding compound at 0.1 μM. After 24 h, the medium was removed and replaced with 1% (v/v) FBS media containing the corresponding compound at 0.1 µM and the selected toxic stimuli, namely a mixture of rotenone and oligomycin A (R/O; 30/10 μM, respectively; Sigma–Aldrich, Spain) or 6-hydroxydopamine (100 µM; Sigma–Aldrich, Spain). […].

SH-SY5Y cells [6] = test: Neuroprotection in SH-SY5Y against rotenone/oligomycin A (MTT); assay type: cell-based, human; conditions: compound 0.1 µM, 24 h pre- and 24 h co-incubation
Description: as §8

NRF2 = NRF2 induction, luciferase activity in AREc32 reporter cells; assay type: cell-based, human; conditions: for EC50: Homo sapiens, 24 h, concentration required to double luciferase activity compared to basal, read-out: CD (µM) NRF2 Induction; for fold potentiation of NRF2 induction compared to the corresponding -OMe derivative: 11, 12 vs 10, 14, 15 vs 13
Description: Cells were used from the third to twelfth passage.
AREc32 cells were stably transfected with the plasmid pGL-8xARE that implements 8 copies of the antioxidant response element (ARE) sequences followed by luciferase reporter gen. Therefore, NRF2 induction can be related to the activation of ARE sequences by measuring luciferase activity in terms of luminescence production. For NRF2 induction experiments, cells were plated in 96 white flat bottom well plates (20,000 cells/well). After 24 h, cells were incubated with selected compounds at the desired concentrations in duplicates for 24 h. The Luciferase Assay System (Promega E1500) was used according to provider protocol and luminescence was quantified in an Orion II microplate luminometer (Berthold, Germany). Fold induction of luciferase activity was normalized to basal conditions. Data were expressed as CD values, which means the concentration needed to duplicate the luciferase activity compared to basal conditions. CD values were calculated from dose–response curves fitted by non-linear regression for each compound after logarithmic transformation of the data using GraphPad Prism 8.0 software.

IL-1β = IL-1β levels by ELISA in LPS stimulated primary mixed glial cultures; assay type: cell-based, rat; conditions: compound 10 μM; LPS 1 µg/mL 18 h
Description: as §6, §7
Supernatants obtained from mixed primary glial cell cultures were used to determine IL-1β levels by quantitative ELISA kits (Preprotech, R&D Systems-bioNova, Madrid, Spain) following the manufacturer’s instructions. Commercial solution of IL-1β was used to generate a standard curve for sample quantification. Absorbance was measured in a microplate reader SPECTROstar Nano (BMG Labtech) at 405 with 650 nm correction.

| Compound | LD50 (µM) AREc32 (AREc32) [µM] | EC50 [1] [µM] | LD50 (µM) Mixed primary glial cultures [2] [µM] | ORAC (T. eq.) [3] [T. eq.] | PAMPA Prediction [4] | 6-OHDA Protection (%) (SH-SY5Y cells [5]) | R/O (30/10 µM) Protection (%) (SH-SY5Y cells [6]) | EC50 (NRF2; AREc32 cells) [µM] | IL-1β Levels % Reduction (10 μM) (IL-1β) [%] | fold potentiation of NRF2 induction compared to the corresponding -OMe derivative (NRF2) [fold] | luciferase activity (NRF2 induction) dose–response (NRF2; AREc32 cells, 24 h, 3, 5, and 10 µM) |
| --- | --- | --- | --- | --- | --- | --- | --- | --- | --- | --- | --- |
| C#CCNCCc1c[nH]c2ccc(OC)cc12 [Compound 10, N-(2-(5-Methoxy-1H-indol-3-yl)ethyl)prop-2-yn-1-amine] | > 30 | 16.2 ± 2.5 | > 30 | 2.47 ± 0.13 | CNS + (CNS + (high BBB permeability): Pe (10^−6 cm s^−1) > 4.0) | 83.5 | 44.6 | 20.9 ± 2.2 | 68.4 ± 4.9 | – | – |
| C#CCN(CC#C)CCc1c[nH]c2ccc(OC)cc12 [Compound 13, N-(2-(5-Methoxy-1H-indol-3-yl)ethyl)-N-(prop-2-yn-1-yl)prop-2-yn-1-amine] | > 30 | 12.6 ± 0.53 | > 30 | 2.09 ± 0.11 | CNS + (CNS + (high BBB permeability): Pe (10^−6 cm s^−1) > 4.0) | 87.4 | 42.7 | 13.9 ± 1.5 | 67.4 ± 5.80 | – | – |
| C#CCN(CC#C)CCc1c[nH]c2ccc(OC(=O)C=Cc3ccccc3)cc12 [Compound 14, 3-(2-(Di(prop-2-yn-1-yl)amino)ethyl)-1H-indol-5-yl Cinnamate] | > 30 | 19.4 ± 1.4 | > 30 | 1.98 ± 0.15 | CNS + (CNS + (high BBB permeability): Pe (10^−6 cm s^−1) > 4.0) | 71.7 | 53.3 | 5.07 ± 0.23 | 41.1 ± 1.7 | 3 | significantly increasing luciferase activity |
| C#CCN(CC#C)CCc1c[nH]c2ccc(OC(=O)/C=C/c3ccc(C)cc3)cc12 [Compound 15, 3-(2-(Di(prop-2-yn-1-yl)amino)ethyl)-1H-indol-5-yl-(E)-3-(p-tolyl) Acrylate] | > 30 | 22.9 ± 3.3 | > 30 | 1.74 ± 0.10 | CNS + (CNS + (high BBB permeability): Pe (10^−6 cm s^−1) > 4.0) | 41.5 | 36.4 | 5.76 ± 0.07 | 60.5 ± 3.50 | 3 | – |
